From publication PMC6070925, “Genome Mining of Non-Conventional Yeasts: Search and Analysis of MAL Clusters and Proteins” (Genes, 2018) come the findings set out here.

Common to all, as to test: glucose release, recombinant E. coli extract
Assay type in all cases: biochemical
What all share (settings): 100 mM substrate, K-phosphate pH 6.5, 0.1 mM EDTA, 30 °C

The target of assay [1] is T1, MAL62 (Sc MAL62) (Saccharomyces cerevisiae, UniProt P07265).
T1 construct: gene from plasmid pY6 cloned into pURI3-Cter, expressed in E. coli BL21 (DE3), crude cell extract
T1 sequence (P07265 whole entry): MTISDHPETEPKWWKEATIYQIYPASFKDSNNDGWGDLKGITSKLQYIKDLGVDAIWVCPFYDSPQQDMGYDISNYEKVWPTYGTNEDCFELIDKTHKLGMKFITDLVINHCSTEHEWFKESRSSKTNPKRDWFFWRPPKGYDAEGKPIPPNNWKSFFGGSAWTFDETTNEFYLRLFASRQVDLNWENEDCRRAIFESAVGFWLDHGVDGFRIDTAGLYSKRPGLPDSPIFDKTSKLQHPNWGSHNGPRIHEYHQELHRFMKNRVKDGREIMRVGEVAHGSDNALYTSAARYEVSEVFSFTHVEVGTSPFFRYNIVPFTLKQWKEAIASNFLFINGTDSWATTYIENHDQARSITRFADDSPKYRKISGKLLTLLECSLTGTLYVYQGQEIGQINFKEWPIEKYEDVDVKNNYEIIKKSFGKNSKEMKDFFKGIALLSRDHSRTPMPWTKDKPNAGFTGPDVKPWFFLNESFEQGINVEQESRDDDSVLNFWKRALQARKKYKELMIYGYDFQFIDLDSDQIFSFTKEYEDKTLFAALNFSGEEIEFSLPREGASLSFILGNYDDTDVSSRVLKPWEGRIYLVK

The next assay has as its target T2, MAL8 (Ss MAL8) (Scheffersomyces stipitis, UniProt A3LXA2).
T2 construct: gene PCR-cloned from genomic DNA into pURI3-Cter, expressed in E. coli BL21 (DE3), crude cell extract
T2 sequence (A3LXA2 1-572): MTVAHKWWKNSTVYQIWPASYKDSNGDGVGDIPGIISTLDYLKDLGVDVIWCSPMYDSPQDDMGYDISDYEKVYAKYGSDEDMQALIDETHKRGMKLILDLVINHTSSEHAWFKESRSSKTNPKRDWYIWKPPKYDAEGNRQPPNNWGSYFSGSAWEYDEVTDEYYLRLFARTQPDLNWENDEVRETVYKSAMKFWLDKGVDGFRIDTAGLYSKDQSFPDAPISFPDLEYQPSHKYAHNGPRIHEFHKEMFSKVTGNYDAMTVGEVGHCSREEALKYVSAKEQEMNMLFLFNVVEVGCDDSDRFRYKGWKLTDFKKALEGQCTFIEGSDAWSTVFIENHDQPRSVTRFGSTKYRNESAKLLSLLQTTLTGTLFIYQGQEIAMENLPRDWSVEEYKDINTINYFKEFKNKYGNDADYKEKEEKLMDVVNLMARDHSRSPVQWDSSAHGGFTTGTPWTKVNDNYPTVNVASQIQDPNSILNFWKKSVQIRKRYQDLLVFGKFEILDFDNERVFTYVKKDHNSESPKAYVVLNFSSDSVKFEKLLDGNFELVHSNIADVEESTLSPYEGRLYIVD

The next assay concerns the target T3, MAL9 (Ss MAL9) (Scheffersomyces stipitis, UniProt A3GIC0).
T3 construct: gene PCR-cloned from genomic DNA into pURI3-Cter, expressed in E. coli BL21 (DE3), crude cell extract
T3 sequence (A3GIC0 1-573): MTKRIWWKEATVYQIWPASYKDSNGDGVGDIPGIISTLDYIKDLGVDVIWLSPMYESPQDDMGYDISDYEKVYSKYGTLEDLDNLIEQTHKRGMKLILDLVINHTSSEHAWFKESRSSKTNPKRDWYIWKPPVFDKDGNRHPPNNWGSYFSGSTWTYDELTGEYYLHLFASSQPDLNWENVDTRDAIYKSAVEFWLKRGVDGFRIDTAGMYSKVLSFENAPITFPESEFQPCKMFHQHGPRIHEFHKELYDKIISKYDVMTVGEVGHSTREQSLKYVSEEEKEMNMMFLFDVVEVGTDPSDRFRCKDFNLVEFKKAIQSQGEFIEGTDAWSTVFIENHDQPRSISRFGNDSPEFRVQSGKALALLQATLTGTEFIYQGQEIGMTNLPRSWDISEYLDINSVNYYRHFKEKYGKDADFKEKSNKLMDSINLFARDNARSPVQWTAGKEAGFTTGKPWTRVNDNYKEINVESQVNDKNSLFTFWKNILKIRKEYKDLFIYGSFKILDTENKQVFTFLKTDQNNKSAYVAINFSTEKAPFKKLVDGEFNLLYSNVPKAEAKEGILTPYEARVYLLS

The target in the next assay is T4, MAL7 (Ss MAL7) (Scheffersomyces stipitis, UniProt A3LUP5).
T4 construct: gene PCR-cloned from genomic DNA into pURI3-Cter, expressed in E. coli BL21 (DE3), crude cell extract
T4 sequence (A3LUP5 1-572): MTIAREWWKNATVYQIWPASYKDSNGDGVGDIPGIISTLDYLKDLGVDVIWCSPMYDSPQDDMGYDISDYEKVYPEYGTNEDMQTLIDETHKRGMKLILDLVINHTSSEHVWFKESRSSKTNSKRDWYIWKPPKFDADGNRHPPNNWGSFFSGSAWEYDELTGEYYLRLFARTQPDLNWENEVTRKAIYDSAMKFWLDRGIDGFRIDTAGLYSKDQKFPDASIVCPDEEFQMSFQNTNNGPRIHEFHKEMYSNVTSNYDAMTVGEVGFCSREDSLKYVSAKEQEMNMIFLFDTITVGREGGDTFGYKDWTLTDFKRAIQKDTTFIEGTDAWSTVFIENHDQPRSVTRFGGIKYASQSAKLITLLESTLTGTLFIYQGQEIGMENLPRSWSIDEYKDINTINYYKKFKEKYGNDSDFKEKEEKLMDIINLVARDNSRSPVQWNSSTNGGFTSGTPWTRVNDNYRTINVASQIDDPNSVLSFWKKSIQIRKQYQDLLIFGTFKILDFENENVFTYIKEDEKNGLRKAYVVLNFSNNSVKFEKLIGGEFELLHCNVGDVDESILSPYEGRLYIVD

Assay [2] has as its target T1, MAL62 (Sc MAL62). This is another data set of the same source.

Consider `OC[C@H]1O[C@@](CO)(O[C@H]2O[C@H](CO)[C@@H](O)[C@H](O)[C@H]2O)[C@@H](O)[C@@H]1O` [sucrose], for which the specific activity result on MAL62 (Sc MAL62) [1] was “behaved as a typical maltase using only maltose-like substrates”.

For the compound `OC[C@H]1O[C@H](O[C@H]2[C@H](O)[C@@H](O)C(O)O[C@@H]2CO)[C@H](O)[C@@H](O)[C@@H]1O` (some centres unmarked) [maltose], the “specific activity relative to sucrose” value at MAL8 (Ss MAL8) is on record as “all these enzymes hydrolyzed not only maltose-like substrates (maltose, sucrose)”; at MAL9 (Ss MAL9), “all these enzymes hydrolyzed not only maltose-like substrates (maltose, sucrose)”; at MAL7 (Ss MAL7) it was “all these enzymes hydrolyzed not only maltose-like substrates (maltose, sucrose)”; at MAL62 (Sc MAL62) [2] it was “behaved as a typical maltase using only maltose-like substrates”.
